Inhibition in vivo and ED50 data for 14 compounds are collected here from patent US5177102A, “Polyisoprene compounds and salts thereof” (Sanwa Kagaku Kenkyusho Co., Ltd., priority 1990, dated 1993).

Like-named read-outs stand apart in the source and are kept apart here.

The subject of this test is stress-induced gastric ulcer. Kind of test: Anti-ulcer activity: water-immersion restraint stress-induced gastric ulcer in rats, oral (procedure of Takagi et al.). It is filed as in vivo, Male Sprague-Dawley rats. The note with it: for ED50: read-out: ED50 (dose of test compound which gives 50% inhibition). Here is the method:
Some polyisoprene compounds according to the invention were tested to evaluate their anti-ulcer activity in comparison with Teprenone and Gefarnate as controls, in accordance with the procedure proposed by Takagi et al ["Japan. J. Pharmacol.", Vol. 18, page 9 (1968)].
Male Sprague-Dawley rats were used, each having the body weight of 183.9 to 234.5 g. The animals were deprived of food for 24 hours prior to the test. They were immobilized in a restraint cage and immersed for 7 hours to the height of the xiphoid process in a water-bath kept at 23°±1° C. After inflation with 10 ml of 1% formalin, the isolated stomach was opened along the greater curvature. The ulcer index was determined as the sum of length (mm) of each erosion per rat. The compounds were administered orally 30 minutes before the restraint.
Results are shown in following Table 1 in terms of percent inhibition of anti-ulcer activity. In the Table, ED50 represents the dose of test compound which gives 50% inhibition.

The mark [1] stands for this setting: oral, 30 minutes before restraint, rat, read-out: Inhibition (percent inhibition, ulcer index).
The mark [2] stands for this setting: oral, 30 minutes before restraint, rat.
[3] abbreviates: Rattus norvegicus, po, read-out: Inhibition (percent inhibition, ulcer index).

By ED50 is commonly meant the dose at which the effect has come halfway, by size or by number of responders. For the compound `CC(C)=CCCC(C)=CCCC(C)=CCCC(C)=CCCC(C)=CCCC(C)=CCCC(C)=CCCC(C)=CCCC(C)=CCSCCN` [Example 1, 2-(3,7,11,15,19,23,27,31,35-Nonamethyl-2,6,10,14,18,22,26,30,34-hexatriacontanonaen-1-ylthio)ethylamine], under setting [1], the inhibition in vivo at 12.5 mg/kg is -3.1%, the inhibition in vivo at 25 mg/kg was 39.7% and the inhibition in vivo at 50 mg/kg was determined as 55.1%. The ED50 under setting [2] was 39.7 mg/kg.

As to `CC(=CCSCCN)CCCC(C)CCCC(C)CCCC(C)C` (stereo not drawn) [Example 2, 2-(3,7,11,15-Tetramethyl-2-hexadecaen-1-ylthio)ethylamine], under setting [1], the inhibition in vivo at 12.5 mg/kg came out at 9%, the inhibition in vivo at 25 mg/kg worked out at 45% and the inhibition in vivo at 50 mg/kg came to 69%. Also, under setting [2], the ED50 was determined as 30.8 mg/kg.

Consider `CC(C)=CCCC(C)=CCSCCN` [Example 3, 2-(3,7-Dimethyl-2,6-octadien-1-ylthio)ethylamine], for which the inhibition in vivo at 50 mg/kg under setting [1] stood at 13.3%. Further, the ED50 under setting [2] was greater than 50 mg/kg.

Take `CC(C)=CCCC(C)=CCCC(C)=CCCC(C)=CCCC(C)=CCCC(C)=CCCC(C)=CCCC(C)=CCCC(C)=CCCC(C)=CCSCCN` [Example 4, 2-(3,7,11,15,19,23,27,31,35,39-Decamethyl-2,6,10,14,18,22,26,30,34,38-tetracontadecaen-1-ylthio)ethylamine]: under setting [1], the inhibition in vivo at 12.5 mg/kg came to 11.1%, the inhibition in vivo at 25 mg/kg turned out to be 24.2% and the inhibition in vivo at 50 mg/kg came to 44.4%. In addition, the ED50 under setting [2] is greater than 50 mg/kg.

For `CC(C)=CCCC(C)=CCCC(C)=CCCC(C)=CCSCCN` [Example 5, 2-(3,7,11,15-Tetramethyl-2,6,10,14-hexadecatetraen-1-ylthio)ethylamine], under setting [1], the inhibition in vivo at 12.5 mg/kg is -2.8%, the inhibition in vivo at 25 mg/kg worked out at 57.4% and the inhibition in vivo at 50 mg/kg is 88%. Also, under setting [2], the ED50 was 21.1 mg/kg.

Turning to `CC(C)=CCCC(C)=CCCC(C)=CCSCCN` [Example 6, 2-(3,7,11-Trimethyl-2,6,10-dodecatrien-1-ylthio)ethylamine], under setting [1], the inhibition in vivo at 50 mg/kg was 15.4%. Further, the ED50 under setting [2] is greater than 50 mg/kg.

On to `CNC(=C[N+](=O)[O-])NCCSCC=C(C)CCC=C(C)CCC=C(C)CCC=C(C)C` [Example 7, 2-Methylamino-1-nitro-2-[2-(3,7,11,15-tetramethyl-2,6,10,14-hexadecatetraen-1-ylthio)ethylamino]ethylene], for which, under setting [1], the inhibition in vivo at 12.5 mg/kg is -7%, the inhibition in vivo at 25 mg/kg came out at 23.8% and the inhibition in vivo at 50 mg/kg came to 67.8%. Besides, the ED50 under setting [2] stood at 37.4 mg/kg.

As for `CC(C)=CCCC(C)=CCCC(C)=CCCC(C)=CCCC(C)=CCCC(C)=CCCC(C)=CCCC(C)=CCCC(C)=CCCC(C)=CCNCC12CCCN1CCC2` [Example 8, 5-{[(3,7,11,15,19,23,27,31,35,39-Decamethyl-2,6,10,14,18,22,26,30,34,38-tetracontadecaen-1-yl)amino]methyl}-1-azabicyclo[3.3.0]octane], the inhibition in vivo at 50 mg/kg under setting [1] came to 10.3%. Moreover, under setting [2], the ED50 is greater than 50 mg/kg.

In the case of `CC(C)=CCCC(C)=CCCC(C)=CCCC(C)=CCNCC12CCCN1CCC2` [Example 9, 5-{[(3,7,11,15-Tetramethyl-2,6,10,14-hexadecatetraen-1-yl)amino]methyl}-1-azabicyclo[3.3.0]octane], under setting [1], the inhibition in vivo at 12.5 mg/kg came out at 38.4%, the inhibition in vivo at 25 mg/kg was 67.9% and the inhibition in vivo at 50 mg/kg turned out to be 84.9%. In addition, the ED50 under setting [2] came to 16.6 mg/kg.

With `CC(C)=CCCC(C)=CCCC(C)=CCCC(C)=CCCC(C)=CCCC(C)=CCCC(C)=CCCC(C)=CCCC(C)=CCCC(C)=CCSCCNC(=O)CC12CCCN1CCC2` [Example 10, N-[2-(3,7,11,15,19,23,27,31,35,39-Decamethyl-2,6,10,14,18,22,26,30,34,38-tetracontadecaen-1-ylthio)ethyl]-(1-azabicyclo[3.3.0]octan-5-yl)acetamide], under setting [1], the inhibition in vivo at 12.5 mg/kg turned out to be 27.3% and the inhibition in vivo at 25 mg/kg is 33.9%. Further, the ED50 under setting [2] is greater than 50 mg/kg.

Regarding `CC(C)=CCCC(C)=CCCC(C)=CCCC(C)=CCSCCNC(=O)CC12CCCN1CCC2` [Example 11, N-[2-(3,7,11,15-Tetramethyl-2,6,10,14-hexadecatetraen-1-ylthio)ethyl]-(1-azabicyclo[3.3.0]octan-5-yl)acetamide], under setting [1], the inhibition in vivo at 12.5 mg/kg was 9.4%, the inhibition in vivo at 25 mg/kg stood at 51% and the inhibition in vivo at 50 mg/kg came to 68.5%. In addition, under setting [2], the median effective dose (ED50) was found to be 26 mg/kg.

`CC(C)=CCCC(C)=CCCC(C)=CCCC(C)=CCN(CC=C(C)CCC=C(C)CCC=C(C)CCC=C(C)C)CC12CCCN1CCC2` [Example 12, 5-{[Bis(3,7,11,15-tetramethyl-2,6,10,14-hexadecatetraen-1-yl)amino]methyl}-1-azabicyclo[3.3.0]octane]: under setting [1], the inhibition in vivo at 12.5 mg/kg is 21.5% and the inhibition in vivo at 25 mg/kg turned out to be 50%. Moreover, the 50% effective dose (ED50) under setting [2] was no less than 25 mg/kg.

As to `CC(C)=CCC/C(C)=C/CC/C(C)=C/CCC(=O)OC/C=C(\C)CCC=C(C)C` [Gefarnate, reference compound], under “Rattus norvegicus, po”, the ED50 amounted to 387 mg/kg. In addition, under setting [3], the inhibition in vivo at 100 mg/kg was 24.6%, the inhibition in vivo at 200 mg/kg was 19.2% and the inhibition in vivo at 400 mg/kg came to 51.5%.

`CC(=O)CCC=C(C)CCC=C(C)CCC=C(C)CCC=C(C)C` [Teprenone, reference compound]: under setting [1], the inhibition in vivo at 25 mg/kg stood at 0% and the inhibition in vivo at 50 mg/kg came to 9.4%. Moreover, the inhibition in vivo at 100 mg/kg (100 mg/kg, oral, 30 minutes before restraint, rat, read-out: Inhibition (percent inhibition, ulcer index)) was 48.3%. Besides, under setting [2], the median effective dose (ED50) is greater than 100 mg/kg.
